Measurements taken from PubChem BioAssay AID284 (DTP/NCI, 2004).
Where “and” joins values, the source holds several entries; their conditions need not be identical. Equal values may be shown once. Inconclusive results and toxic doses are left out. How the source made its calls: active means survival T/C of 150% or more; inactive means T/C below 125% in these data.

Tested on: BDF1 mice, L1210/MTX-resistant leukemia ip, survival T/C
Test: NCI In Vivo Anticancer Drug Screen. Data for tumor model L1210 Leukemia resistant to Methotrexate; NSC 740 (intraperitoneal) in B6D2F1 (BDF1) mice
Conditions: endpoint: mean survival time, higher = longer survival
Procedure: The antitumor activity of compounds was measured in mice bearing transplantable tumors. Survival or tumor size were measured and the results are expressed as the measurement made in the treated group (T) divided by the measurement made in the vehicle treated control group (C). The tumor model used in this assay is L1210 Leukemia resistant to Methotrexate; NSC 740 (intraperitoneal) in B6D2F1 (BDF1) mice

[1] = dose: 25.0 mg/kg/injection, schedule: Q01DX010 (ip), vehicle: saline
[2] = dose: 50.0 mg/kg/injection, schedule: Q01DX010 (ip), vehicle: saline
[3] = dose: 12.5 mg/kg/injection, schedule: Q01DX Z (ip), vehicle: carboxymethylcellulose (CMC)
[4] = dose: 25.0 mg/kg/injection, schedule: Q01DX Z (ip), vehicle: carboxymethylcellulose (CMC)
[5] = dose: 50.0 mg/kg/injection, schedule: Q01DX Z (ip), vehicle: carboxymethylcellulose (CMC)
[6] = dose: 62.5 mg/kg/injection, schedule: Q01DX Z (ip), vehicle: carboxymethylcellulose (CMC)
[7] = dose: 0.5 mg/kg/injection, schedule: Q01DX Z (ip), vehicle: carboxymethylcellulose (CMC)
[8] = dose: 1.0 mg/kg/injection, schedule: Q01DX Z (ip), vehicle: carboxymethylcellulose (CMC)
[9] = dose: 2.0 mg/kg/injection, schedule: Q01DX Z (ip), vehicle: carboxymethylcellulose (CMC)
[10] = dose: 4.0 mg/kg/injection, schedule: Q01DX Z (ip), vehicle: carboxymethylcellulose (CMC)
[11] = dose: 4.0 mg/kg/injection, schedule: Q01DX010 (ip), vehicle: other
[12] = dose: 8.0 mg/kg/injection, schedule: Q01DX010 (ip), vehicle: other
[13] = dose: 7.5 mg/kg/injection, schedule: Q01DX Z (ip), vehicle: carboxymethylcellulose (CMC)

Measured: T/C

O=C1C(NC(=O)C2CCCCC2)=C(N2CC2)C(=O)C(NC(=O)C2CCCCC2)=C1N1CC1
inactive: dose: 11.0 mg/kg/injection, schedule: Q01DX010 (ip), vehicle: saline 89 % of control | dose: 22.0 mg/kg/injection, schedule: Q01DX010 (ip), vehicle: saline 101 % of control | [1] 112 % of control | dose: 44.0 mg/kg/injection, schedule: Q01DX010 (ip), vehicle: saline 98 % of control | [2] 108 % of control | dose: 88.0 mg/kg/injection, schedule: Q01DX010 (ip), vehicle: saline 95 % of control | dose: 100.0 mg/kg/injection, schedule: Q01DX010 (ip), vehicle: saline 109 % of control | dose: 200.0 mg/kg/injection, schedule: Q01DX010 (ip), vehicle: saline 109 % of control

CN(C)c1ccc(/C=C\c2ccnc3ccccc23)cc1
inactive: dose: 1.5 mg/kg/injection, schedule: Q01DX010 (ip), vehicle: saline 97 % of control | dose: 3.0 mg/kg/injection, schedule: Q01DX010 (ip), vehicle: saline 103 % of control | dose: 6.0 mg/kg/injection, schedule: Q01DX010 (ip), vehicle: saline 99 % of control

Nc1nc(SCc2ccccc2)c2[nH]cnc2n1
inactive: dose: 6.25 mg/kg/injection, schedule: Q01DX Z (ip), vehicle: carboxymethylcellulose (CMC) 121 % of control | dose: 8.0 mg/kg/injection, schedule: Q01DX010 (ip), vehicle: saline 105 % of control | [3] 114 % of control | dose: 16.0 mg/kg/injection, schedule: Q01DX010 (ip), vehicle: saline 120 % of control | [4] 107 % of control | [5] 105 % of control | [6] 95 % of control | dose: 64.0 mg/kg/injection, schedule: Q01DX010 (ip), vehicle: saline 96 % of control

S=P(N1CCCC1)(N1CC1)N1CC1
inactive: dose: 0.03 mg/kg/injection, schedule: Q01DX Z (ip), vehicle: methylcellulose (MC) 93 % of control | dose: 0.05 mg/kg/injection, schedule: Q01DX Z (ip), vehicle: methylcellulose (MC) 91 % of control | dose: 0.1 mg/kg/injection, schedule: Q01DX Z (ip), vehicle: methylcellulose (MC) 99 % of control

CS(=O)(=O)OCCCCOS(C)(=O)=O
inactive: dose: 0.38 mg/kg/injection, schedule: Q01DX Z (ip), vehicle: methylcellulose (MC) 88 % of control and 105 % of control | dose: 0.75 mg/kg/injection, schedule: Q01DX Z (ip), vehicle: methylcellulose (MC) 93 % of control and 97 % of control | dose: 6.25 mg/kg/injection, schedule: Q01DX010 (ip), vehicle: saline 97 % of control | dose: 12.5 mg/kg/injection, schedule: Q01DX010 (ip), vehicle: saline 92 % of control and 93 % of control | [3] 106 % of control | [1] 91 % of control | [2] 102 % of control

Nc1nc(=S)c2ncn(C3OC(CO)C(O)C3O)c2[nH]1 (configuration not stated)
inactive: dose: 0.22 mg/kg/injection, schedule: Q01DX Z (ip), vehicle: carboxymethylcellulose (CMC) 88 % of control | dose: 0.45 mg/kg/injection, schedule: Q01DX Z (ip), vehicle: carboxymethylcellulose (CMC) 88 % of control | dose: 1.8 mg/kg/injection, schedule: Q01DX Z (ip), vehicle: carboxymethylcellulose (CMC) 102 % of control

N[C@@H](Cc1ccc(N(CCCl)CCCl)cc1)C(=O)O
inactive: [7] 114 % of control | [8] 100 % of control | [9] 110 % of control | dose: 3.0 mg/kg/injection, schedule: Q01DX Z (ip), vehicle: carboxymethylcellulose (CMC) 114 % of control | [10] 107 % of control | dose: 6.0 mg/kg/injection, schedule: Q01DX Z (ip), vehicle: carboxymethylcellulose (CMC) 97 % of control | dose: 8.0 mg/kg/injection, schedule: Q01DX Z (ip), vehicle: carboxymethylcellulose (CMC) 86 % of control

N#[N+]c1cnc([O-])[nH]c1=O
inactive: dose: 0.16 mg/kg/injection, schedule: Q01DX Z (ip), vehicle: methylcellulose (MC) 106 % of control | dose: 0.32 mg/kg/injection, schedule: Q01DX Z (ip), vehicle: methylcellulose (MC) 103 % of control | dose: 0.63 mg/kg/injection, schedule: Q01DX Z (ip), vehicle: methylcellulose (MC) 100 % of control

Nc1nc2n[nH]nc2c(=O)[nH]1
inactive: dose: 25.0 mg/kg/injection, schedule: Q01DX010 (ip), vehicle: alkali diluted with saline 92 % of control | dose: 25.0 mg/kg/injection, schedule: Q01DX Z (ip), vehicle: water 120 % of control | dose: 50.0 mg/kg/injection, schedule: Q01DX010 (ip), vehicle: alkali diluted with saline 94 % of control and 99 % of control | dose: 50.0 mg/kg/injection, schedule: Q01DX Z (ip), vehicle: other 106 % of control | dose: 50.0 mg/kg/injection, schedule: Q01DX Z (ip), vehicle: water 120 % of control | dose: 100.0 mg/kg/injection, schedule: Q01DX010 (ip), vehicle: alkali diluted with saline 90 % of control and 91 % of control | dose: 100.0 mg/kg/injection, schedule: Q01DX Z (ip), vehicle: other 101 % of control | dose: 200.0 mg/kg/injection, schedule: Q01DX010 (ip), vehicle: alkali diluted with saline 88 % of control and 98 % of control | dose: 200.0 mg/kg/injection, schedule: Q01DX Z (ip), vehicle: water 107 % of control | dose: 350.0 mg/kg/injection, schedule: Q01DX Z (ip), vehicle: water 94 % of control

Oc1cc(CN(CCCl)CCCl)c(O)cc1CN(CCCl)CCCl
inactive: dose: 0.25 mg/kg/injection, schedule: Q01DX Z (ip), vehicle: carboxymethylcellulose (CMC) 96 % of control | dose: 0.37 mg/kg/injection, schedule: Q01DX Z (ip), vehicle: carboxymethylcellulose (CMC) 110 % of control | [7] 88 % of control | dose: 0.75 mg/kg/injection, schedule: Q01DX Z (ip), vehicle: carboxymethylcellulose (CMC) 97 % of control | [8] 86 % of control | [9] 88 % of control

O=c1cnn(C2OC(CO)C(O)C2O)c(=O)[nH]1 (configuration not stated)
inactive: dose: 125.0 mg/kg/injection, schedule: Q01DX Z (ip), vehicle: methylcellulose (MC) 97 % of control | dose: 250.0 mg/kg/injection, schedule: Q01DX Z (ip), vehicle: methylcellulose (MC) 95 % of control | dose: 500.0 mg/kg/injection, schedule: Q01DX Z (ip), vehicle: methylcellulose (MC) 104 % of control

O=C(Nc1ccc(C2=NCCN2)cc1)c1ccc(C(=O)Nc2ccc(C3=NCCN3)cc2)cc1
inactive: dose: 10.0 mg/kg/injection, schedule: Q01DX Z (ip), vehicle: methylcellulose (MC) 124 % of control and 105 % of control | dose: 20.0 mg/kg/injection, schedule: Q01DX Z (ip), vehicle: methylcellulose (MC) 120 % of control and 106 % of control | dose: 40.0 mg/kg/injection, schedule: Q01DX Z (ip), vehicle: methylcellulose (MC) 117 % of control
active: [11] 194 % of control and 204 % of control | [12] 244 % of control and 279 % of control | dose: 16.0 mg/kg/injection, schedule: Q01DX010 (ip), vehicle: other 218 % of control and 219 % of control | dose: 32.0 mg/kg/injection, schedule: Q01DX010 (ip), vehicle: other 231 % of control and 239 % of control | dose: 64.0 mg/kg/injection, schedule: Q01DX010 (ip), vehicle: other 222 % of control and 242 % of control

N#CCSc1ncnc2nc[nH]c12
inactive: [4] 101 % of control | [5] 120 % of control | dose: 100.0 mg/kg/injection, schedule: Q01DX Z (ip), vehicle: carboxymethylcellulose (CMC) 111 % of control

NC(Cc1ccc(N(CCCl)CCCl)cc1)C(=O)O (configuration not stated)
inactive: [7] 112 % of control | [8] 123 % of control | [9] 102 % of control | [11] 98 % of control | [10] 90 % of control | dose: 5.0 mg/kg/injection, schedule: Q01DX Z (ip), vehicle: carboxymethylcellulose (CMC) 107 % of control | [13] 86 % of control | [12] 91 % of control | dose: 10.0 mg/kg/injection, schedule: Q01DX Z (ip), vehicle: carboxymethylcellulose (CMC) 93 % of control
active: dose: 2.0 mg/kg/injection, schedule: Q01DX010 (ip), vehicle: other 156 % of control

CSc1ncnc2nc[nH]c12
inactive: [13] 93 % of control | dose: 15.0 mg/kg/injection, schedule: Q01DX Z (ip), vehicle: carboxymethylcellulose (CMC) 86 % of control | dose: 31.0 mg/kg/injection, schedule: Q01DX Z (ip), vehicle: carboxymethylcellulose (CMC) 122 % of control | [6] 112 % of control | dose: 125.0 mg/kg/injection, schedule: Q01DX Z (ip), vehicle: carboxymethylcellulose (CMC) 107 % of control
